The values below come from US20260263506A1, “CORNEAL DISORDER TREATMENT AGENT” (M'S SCIENCE CORPORATION, priority 2022, published 2026).

Marks after values point to notes of the source that are not given here.

The subject of assay [1] is HCE-T (immortalized human corneal epithelial) cells. The assay can be described thus: HCE-T cell migration assay, cell migration area from fluorescence microscopic images (BZ-X analyzer). The format is cell-based. The following applies: for Relative cell migration area (%): no-addition control = 100%. As for the experimental part: (§1) HCE-T (immortalized human corneal epithelial) cells [isolated and established from human corneal epithelia; obtained from RIKEN Cell Bank] were cultured in DMEM/F12 medium supplemented with 5% fetal bovine serum in a CO2 incubator at 37° C.
(§2) HCE-T cells grown to 60%-80% confluency in a T75 flask were detached with trypsin-EDTA and collected. The collected cells were suspended in fresh DMEM/F12 medium supplemented with fetal bovine serum.
(§3) From this cell suspension, 60,000 cells per well were seeded in a 96-well multiwell-plate, in which each well was fitted with a cell seeding stopper.
(§4) After the plate was incubated overnight at 37° C. in a CO 2 incubator, the cell stoppers were removed, and the cells were washed twice with a serum-free medium. Then, the medium was replaced by a serum-free medium supplemented with the test substance or a control serum-free medium devoid of the test substance, and the cells were cultured for 28 hours.
(§5) The serum-free medium with the test substance used was a medium containing fondaparinux sodium [obtained from Selleck] at a concentration of 0.1% (w/v) or 0.3% (w/v) or a medium containing 0.5% (w/v) sodium chondroitin sulfate (obtained from Tokyo Chemical Industry; average molecular weight, ~30,000).
(§6) The cultured cells were stained with Calcein-AM (obtained from nacalai tesque), and the fluorescence emitted from HCE-T cells that migrated to the zone where the stopper was placed was measured. After the fluorescence intensity was measured, fluorescence microscopic images were acquired and analyzed using a BZ-X analyzer to measure cell migration areas.
The cell migration areas were calculated (measured) through analysis of images acquired with a fluorescence microscope and were used to calculate areas relative to the no-addition control group (relative migration areas).
A relative migration area value is a relative cell migration area for each test substance group expressed in percentage in reference to the cell migration area of the no-addition control group as 100%.
(§7) As in Experiment 1, HCE-T (immortalized human corneal epithelial) cells were used to investigate the effects of test substances on the migration of HCE-T cells. The test substances used were fondaparinux sodium, high-molecular-weight sodium hyaluronate (average molecular weight 887,000), sodium heparan sulfate (average molecular weight 23,000), and low molecular weight heparin (average molecular weight 5,400). Among these test substances, fondaparinux sodium was obtained from Selleck as described above, and all other glycosaminoglycans were obtained from Iwai Chemicals Company. The concentration of each test substance was 0.3% (w/v).

The test system is the same in assay [2]. The experiment in a line: HCE-T cell migration assay, Calcein-AM fluorescence of cells migrated into the stopper zone. The format is cell-based. To be noted: for Relative fluorescence intensity (%): no-addition control = 100%; for Effect on migration of human corneal epithelial cells (in words): summary statement from both analysis methods. How it is done: as §1, §2, §3, §4, §5, §6
A relative fluorescence intensity value is a fluorescence intensity measurement for each test substance group expressed in percentage in reference to the fluorescence intensity of the no-addition group (control) as 100%, indicating the relative level of cell migration compared to the control.
as §7

Where [3] appears, read: Experiment 2, 0.3% (w/v), mean and standard error of 4 measurements.
Setting [4] is: Experiment 2, 0.3% (w/v), as in Experiment 1.
Setting [5] is: Experiment 1, 0.1% (w/v), serum-free medium, 28 hours, mean and standard error of 3 measurements.
Where [6] appears, read: Experiment 1, 0.3% (w/v), serum-free medium, 28 hours, mean and standard error of 3 measurements.
Where [7] appears, read: Experiment 1, 0.5% (w/v), serum-free medium, 28 hours, mean and standard error of 3 measurements.

With Low molecular weight heparin, in assay [1] (setting [3]), the “Cell migration area (10^4 μm^2)” value is 78.4 ± 12.3* 10^4 μm^2. In addition, in assay [1] (Experiment 2, 0.3% (w/v), n=4), the “Relative cell migration area (%)” value was determined as 201.6 ± 31.6 %. In assay [2] (setting [4]), the Fluorescence intensity is 0.359 ± 0.083. In assay [2] (Experiment 2, 0.3% (w/v)), the “Relative fluorescence intensity (%)” value is 293.94 ± 68.25%. Also, the “Effect on migration of human corneal epithelial cells (in words)” value in assay [2] was “strong stimulatory effect”.

As to `CO[C@H]1OC(COS(=O)(=O)[O-])[C@@H](O[C@@H]2OC(C(=O)[O-])[C@@H](O[C@H]3OC(COS(=O)(=O)[O-])[C@@H](O[C@@H]4OC(C(=O)[O-])[C@@H](O[C@H]5OC(COS(=O)(=O)[O-])[C@@H](O)C(O)C5NS(=O)(=O)[O-])C(O)C4O)C(OS(=O)(=O)[O-])C3NS(=O)(=O)[O-])C(O)C2OS(=O)(=O)[O-])C(O)C1NS(=O)(=O)[O-].[Na+].[Na+].[Na+].[Na+].[Na+].[Na+].[Na+].[Na+].[Na+].[Na+]` (stereo partly drawn) [Fondaparinux sodium, methyl O-(2-deoxy-6-O-sulfo-2-sulfoamino-α-D-glucopyranosyl)-(1→4)-O-(β-D-glucopyranosyluronic acid)-(1→4)-O-(2-deoxy-3,6-di-O-sulfo-2-sulfoamino-α-D-glucopyranosyl)-(1→4)-O-(2-O-sulfo-α-L-idopyranosyluronic acid)-(1→4)-2-deoxy-6-O-sulfo-2-sulfoamino-α-D-glucopyranoside sodium salt], the “Relative cell migration area (%)” value stood at 160.5 ± 6.6% in assay [1] (Experiment 1, 0.1% (w/v), n=3); 168.4 ± 5.1 % in assay [1] (Experiment 1, 0.3% (w/v), n=3); 169.4 ± 16.4% in assay [1] (Experiment 2, 0.3% (w/v), n=4). The “Cell migration area (10^4 μm^2)” value is listed as 102.1 ± 4.2 10^4 μm^2 in assay [1] (setting [5]), 107.1 ± 3.2* 10^4 μm^2 in assay [1] (setting [6]) and 65.9 ± 6.4 10^4 μm^2 in assay [1] (setting [3]). The “Relative fluorescence intensity (%)” value was 145.41 ± 10.19% in assay [2] (Experiment 1, 0.1% (w/v), 28 hours, n=3); 170.1 ± 2.84 % in assay [2] (Experiment 1, 0.3% (w/v), 28 hours, n=3); 237.36 ± 22.53 % in assay [2] (Experiment 2, 0.3% (w/v)). Also, the Fluorescence intensity in assay [2] (setting [5]) is listed as 0.183 ± 0.013; in assay [2] (setting [6]) it was 0.215 ± 0.004; in assay [2] (setting [4]) it was 0.290 ± 0.028. Further, the “Effect on migration of human corneal epithelial cells (in words)” value in assay [2] (listed as fondaparinux sodium, sodium salt) was “promoted migration and stretching of human corneal epithelial cells”; in assay [2] (listed as fondaparinux, sodium salt), “strong stimulatory effect”.

Take “High-molecular-weight sodium hyaluronate”: the “Cell migration area (10^4 μm^2)” value in assay [1] (setting [3]) is given as 50.9 ± 17.4 10^4 μm^2. Also, the “Relative cell migration area (%)” value in assay [1] (Experiment 2, 0.3% (w/v), n=4) stood at 130.9 ± 4.5%. The Fluorescence intensity in assay [2] (setting [4]) is on record as 0.176 ± 0.028. Moreover, the “Relative fluorescence intensity (%)” value in assay [2] (Experiment 2, 0.3% (w/v)) was 143.67 ± 22.72%.

With Sodium chondroitin sulfate, the “Relative cell migration area (%)” value in assay [1] (Experiment 1, 0.5% (w/v), n=3) worked out at 103.9 ± 18.0%. Further, the “Cell migration area (10^4 μm^2)” value in assay [1] (setting [7]) was 66.1 ± 1.1 10^4 μm^2. In addition, the “Relative fluorescence intensity (%)” value in assay [2] (Experiment 1, 0.5% (w/v), 28 hours, n=3) was 89.20 ± 23.97%. In addition, the Fluorescence intensity in assay [2] (setting [7]) was 0.112 ± 0.030.
